Test results as given in US20260262643A1, “HERBICIDAL BENZOXAZINES” (FMC CORPORATION, priority 2022, published 2026).

Assays:
barnyardgrass [1] = experiment: Test C preemergence; format: in vivo, Echinochloa crusgalli
Outline: (§1)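 Visual injury score, 0–100 (100 = complete control), taken 10 days after treatment relative to untreated controls. Pre: directed spray onto soil over sown seeds. Post: foliar spray at one- to two-leaf stage, 2–10 cm. Solvent/surfactant formulation; loam–sand soil; greenhouse.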

blackgrass [2] = experiment: Test C preemergence; format: in vivo, Alopecurus myosuroides
Outline: as §1

corn [3] = experiment: Test C preemergence; format: in vivo, Zea mays
Outline: as §1

green foxtail [4] = experiment: Test C preemergence; format: in vivo, Setaria viridis
Outline: as §1

kochia [5] = experiment: Test C preemergence; format: in vivo, Bassia scoparia
Outline: as §1

oat, wild [6] = experiment: Test C preemergence; format: in vivo, Avena fatua
Outline: as §1

pigweed, palmer [7] = experiment: Test C preemergence; format: in vivo, Amaranthus palmeri
Outline: as §1

ragweed [8] = experiment: Test C preemergence; format: in vivo, Ambrosia artemisiifolia
Outline: as §1

ryegrass, Italian [9] = experiment: Test C preemergence; format: in vivo, Lolium multiflorum
Outline: as §1

soybean [10] = experiment: Test C preemergence; format: in vivo, Glycine max
Outline: as §1

wheat [11] = experiment: Test C preemergence; format: in vivo, Triticum aestivum
Outline: as §1

barnyardgrass [12] = experiment: Test C postemergence; format: in vivo, Echinochloa crusgalli; details: 10 days, 0 to 100 scale (0 no effect, 100 complete control)
Outline: as §1

blackgrass [13] = experiment: Test C postemergence; format: in vivo, Alopecurus myosuroides; details: 10 days, 0 to 100 scale (0 no effect, 100 complete control)
Outline: as §1

corn [14] = experiment: Test C postemergence; format: in vivo, Zea mays; details: 10 days, 0 to 100 scale (0 no effect, 100 complete control)
Outline: as §1

green foxtail [15] = experiment: Test C postemergence; format: in vivo, Setaria viridis; details: 10 days, 0 to 100 scale (0 no effect, 100 complete control)
Outline: as §1

kochia [16] = experiment: Test C postemergence; format: in vivo, Bassia scoparia; details: 10 days, 0 to 100 scale (0 no effect, 100 complete control)
Outline: as §1

oat, wild [17] = experiment: Test C postemergence; format: in vivo, Avena fatua; details: 10 days, 0 to 100 scale (0 no effect, 100 complete control)
Outline: as §1

pigweed, palmer [18] = experiment: Test C postemergence; format: in vivo, Amaranthus palmeri; details: 10 days, 0 to 100 scale (0 no effect, 100 complete control)
Outline: as §1

ragweed [19] = experiment: Test C postemergence; format: in vivo, Ambrosia artemisiifolia; details: 10 days, 0 to 100 scale (0 no effect, 100 complete control)
Outline: as §1

ryegrass, Italian [20] = experiment: Test C postemergence; format: in vivo, Lolium multiflorum; details: 10 days, 0 to 100 scale (0 no effect, 100 complete control)
Outline: as §1

soybean [21] = experiment: Test C postemergence; format: in vivo, Glycine max; details: 10 days, 0 to 100 scale (0 no effect, 100 complete control)
Outline: as §1

wheat [22] = experiment: Test C postemergence; format: in vivo, Triticum aestivum; details: 10 days, 0 to 100 scale (0 no effect, 100 complete control)
Outline: as §1

galium = experiment: Test C postemergence; format: in vivo, Galium aparine; details: 10 days, 0 to 100 scale (0 no effect, 100 complete control)
Outline: as §1

horseweed = experiment: Test C postemergence; format: in vivo, Erigeron canadensis; details: 10 days, 0 to 100 scale (0 no effect, 100 complete control)
Outline: as §1

barnyardgrass [23] = experiment: Test D flooded paddy test; format: in vivo, Echinochloa crus-galli; details: 250 g ai/ha, applied to paddy water, visual rating after 13 to 14 days, scale 0 to 100 (0 no effect, 100 complete control)
Outline: (§2)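 Post-flood water application at the 2-leaf stage; 3 cm flood depth kept constant; visual control rating 0–100 after 13–14 days greenhouse growth.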

ducksalad = experiment: Test D flooded paddy test; format: in vivo, Heteranthera limosa; details: 250 g ai/ha, applied to paddy water, visual rating after 13 to 14 days, scale 0 to 100 (0 no effect, 100 complete control)
Outline: as §2

rice = experiment: Test D flooded paddy test; format: in vivo, Oryza sativa; details: 250 g ai/ha, applied to paddy water, visual rating after 13 to 14 days, scale 0 to 100 (0 no effect, 100 complete control)
Outline: as §2

sedge, umbrella = experiment: Test D flooded paddy test; format: in vivo, Cyperus difformis; details: 250 g ai/ha, applied to paddy water, visual rating after 13 to 14 days, scale 0 to 100 (0 no effect, 100 complete control)
Outline: as §2

[24] = 500 g ai/ha, preemergence, 0 to 100 scale (0 no effect, 100 complete control)
[25] = Preemergence, 125 g ai/ha, 0 to 100 scale, 0 no effect, 100 complete control

C[C@H]1CN(C(=O)c2cccc(-n3cnc(C4CC4)n3)c2)c2cccc(Cl)c2O1 [Compound 325]
Barnyardgrass plant response rating (barnyardgrass [1]; [24]): 100 | Plant response rating, Barnyardgrass (barnyardgrass [1]; [25]): 40 | Blackgrass plant response rating (blackgrass [2]; [24]): 80 | Plant response rating, Blackgrass (blackgrass [2]; [25]): 60 | Corn plant response rating (corn [3]; [24]): 10 | Plant response rating, Corn (corn [3]; [25]): 10 | Foxtail, Green plant response rating (green foxtail [4]; [24]): 100 | Plant response rating, Foxtail, Green (green foxtail [4]; [25]): 100 | Kochia plant response rating (kochia [5]; [24]): 90 | Plant response rating, Kochia (kochia [5]; [25]): 40 | Oat, Wild plant response rating (oat, wild [6]; [24]): 90 | Plant response rating, Oat, Wild (oat, wild [6]; [25]): 60 | Pigweed, Palmer plant response rating (pigweed, palmer [7]; [24]): 100 | Plant response rating, Pigweed, Palmer (pigweed, palmer [7]; [25]): 100 | Ragweed plant response rating (ragweed [8]; [24]): 70 | Plant response rating, Ragweed (ragweed [8]; [25]): 20 | Ryegrass, Italian plant response rating (ryegrass, Italian [9]; [24]): 90 | Plant response rating, Ryegrass, Italian (ryegrass, Italian [9]; [25]): 60 | Soybean plant response rating (soybean [10]; [24]): 40 | Plant response rating, Soybean (soybean [10]; [25]): 40 | Wheat plant response rating (wheat [11]; [24]): 30 | Plant response rating, Wheat (wheat [11]; [25]): 10 | Plant response rating, Barnyardgrass (barnyardgrass [12]; 500 g ai/ha, postemergence): 80 | Plant response rating, Barnyardgrass (barnyardgrass [12]; Postemergence, 125 g ai/ha): 40 | Plant response rating, Blackgrass (blackgrass [13]; 500 g ai/ha, postemergence): 70 | Plant response rating, Blackgrass (blackgrass [13]; Postemergence, 125 g ai/ha): 10 | Plant response rating, Corn (corn [14]; 500 g ai/ha, postemergence): 50 | Plant response rating, Corn (corn [14]; Postemergence, 125 g ai/ha): 30 | Plant response rating, Foxtail, Green (green foxtail [15]; 500 g ai/ha, postemergence): 90 | Plant response rating, Foxtail, Green (green foxtail [15]; Postemergence, 125 g ai/ha): 60 | Plant response rating, Kochia (kochia [16]; 500 g ai/ha, postemergence): 90 | Plant response rating, Kochia (kochia [16]; Postemergence, 125 g ai/ha): 90 | Plant response rating, Oat, Wild (oat, wild [17]; 500 g ai/ha, postemergence): 70 | Plant response rating, Oat, Wild (oat, wild [17]; Postemergence, 125 g ai/ha): 10 | Plant response rating, Pigweed, Palmer (pigweed, palmer [18]; 500 g ai/ha, postemergence): 100 | Plant response rating, Pigweed, Palmer (pigweed, palmer [18]; Postemergence, 125 g ai/ha): 90 | Plant response rating, Ragweed (ragweed [19]; 500 g ai/ha, postemergence): 70 | Plant response rating, Ragweed (ragweed [19]; Postemergence, 125 g ai/ha): 50 | Plant response rating, Ryegrass, Italian (ryegrass, Italian [20]; 500 g ai/ha, postemergence): 80 | Plant response rating, Ryegrass, Italian (ryegrass, Italian [20]; Postemergence, 125 g ai/ha): 30 | Plant response rating, Soybean (soybean [21]; 500 g ai/ha, postemergence): 100 | Plant response rating, Soybean (soybean [21]; Postemergence, 125 g ai/ha): 100 | Plant response rating, Wheat (wheat [22]; 500 g ai/ha, postemergence): 60 | Plant response rating, Wheat (wheat [22]; Postemergence, 125 g ai/ha): 20 | Plant response rating, Galium (galium; 500 g ai/ha, postemergence): 100 | Plant response rating, Galium (galium; Postemergence, 125 g ai/ha): 100 | Plant response rating, Horseweed (horseweed; 500 g ai/ha, postemergence): 60 | Plant response rating, Horseweed (horseweed; Postemergence, 125 g ai/ha): 0 | Plant response rating, Barnyardgrass (Flood) (barnyardgrass [23]): 0 | Plant response rating, Ducksalad (Flood) (ducksalad): 35 | Plant response rating, Rice (Flood) (rice): 0 | Plant response rating, Sedge, Umbrella (Flood) (sedge, umbrella): 75
